Assay results from article PMC9866541, “Flavonoid Derivatives as New Potent Inhibitors of Cysteine Proteases: An Important Step toward the Design of New Compounds for the Treatment of Leishmaniasis” (Microorganisms, 2023).
Like-named read-outs stand apart in the source and are kept apart here.

Legend:
rCPB2.8 [1] = molecular target: T1, rCPB2.8 (Leishmania mexicana, UniProt P36400); test: Screening of inhibitory activity on rCPB2.8 (Z-FR-MCA hydrolysis); type: biochemical; details: for inhibition at 5 µM / inhibition at 1 µM: read-out: Inhibition of rCPB2.8 enzymatic activity
T1 construct: recombinant enzymes (r) lacking the C-terminal region
Procedure: The screening assays for the inhibitory activity of the compounds in the rCPB2.8, rCPB3, and rH84Y enzymes were performed using 100 mM sodium acetate buffer containing 5 mM EDTA, 100 mM NaCl, 0.01% Triton X-100, and 20% glycerol, at pH 5.5. Enzyme aliquots were pre-incubated with 5 mM DTT for 5 min at 37 °C. After checking the initial rate of the reaction corresponding to the control, the enzymatic rate was measured at two concentrations of compounds, 1 µM and 5 µM. Enzyme activity was monitored by hydrolysis of the substrate Z-FR-MCA by measuring the fluorescence at λEx = 360 nm and λEm = 480 nm on a Hitachi F2700 spectrofluorometer, obtaining the rate values in UAF/min (arbitrary fluorescence units by minute).

[2] = test system: Promastigote forms of L. amazonensis; test: Antipromastigote assay (MTT); type: cell-based, Leishmania amazonensis; details: for IC50: Leishmania amazonensis, 72 h, read-out: Promastigote IC50; for SI (selectivity index): GL50 in NIH/3T3 cells / IC50 in extracellular promastigotes
Procedure: A standard strain of Leishmania (Leishmania amazonensis) (IFLA/BR/1967/PH8) was used for the evaluation of in vitro antileishmanial activity. The promastigote forms were grown in Schneider’s insect medium (Sigma-Aldrich®, SP/Brazil) supplemented with 20% foetal bovine serum (Sigma-Aldrich®, SP/Brazil), 10,000 U/mL penicillin, and 10 mg/mL streptomycin (Sigma-Aldrich®, SP/Brazil).
Promastigote forms of L. amazonensis in the log growth phase (10^e6 parasites/mL) were added to 96-well plates and incubated in sextuplicate with the test samples (0.25–10.0 µg/mL). The microplates were incubated at 26 °C for 72 h. Cell viability was assessed by adding 5 mg/mL of MTT ([3-(4,5-dimethylthiazol-2-yl)-2,5-diphenyltetrazolium bromide] (Sigma-Aldrich® SP/Brazil). Results were expressed as the half-maximal inhibitory concentration (IC50) calculated by a nonlinear dose–response regression curve using the statistical program GraphPad PRISM 5.0. Pentamidine (Sigma-Aldrich ® SP/Brazil; 0.25–10 µg/mL) was used as a positive control, and pure Schneider culture medium was used as a negative control.

NIH/3T3 fibroblasts = test: Cytotoxicity on mammalian cells (sulphorhodamine B); type: cell-based; details: for NIH/3T3 Cells GL50: 48 h, concentration that inhibited cell growth by 50%
Procedure: The cytotoxic effect of the test samples was evaluated on NIH/3T3 fibroblasts, obtained from the Rio de Janeiro Cell Bank (Brazil). Cells were seeded in 96-well plates ([…]). After 24 h of fixation, cells were incubated for 48 h with test samples at 0.25–250 µg/mL, in triplicate. […] Doxorubicin (0.025–25 µg/mL was used as a positive control. Cells were fixed by adding 20% trichloroacetic acid and were subsequently stained with sulphorhodamine B (0.1%) diluted in acetic acid after 48 h of exposure. Absorbance values were read on the PT-READER microplate instrument (Thermoplate®), and growth percentages were calculated according to procedures in the literature. Cytotoxicity activity was expressed as the concentration of drug that inhibited cell growth by 50% (GL50), and growth was determined by nonlinear regression using Origin 6.0 software (OriginLab). The statistical significance was analysed using an unpaired Student’s t-test or a one-way analysis of variance. A p-value < 0.05 was considered statistically relevant. In addition, the SI was calculated using the ratio between cytotoxicity in NHI-3T3 cells (GL50) and activity in the parasite forms (IC50).

rCPB2.8 [3] = molecular target: T1, rCPB2.8; test: Determination of IC50 on rCPB2.8 (Z-FR-AMC); type: biochemical
Procedure: Cysteine proteases rCPB2.8, rCPB3, and rH84Y were assayed in 100 mM sodium acetate buffer containing 5 mM EDTA, 100 mM NaCl, 0.01% Triton X-100, and 20% glycerol, at pH 5.5. The enzymes were pre-incubated in the presence of 5 mM DTT for 5 min at 37 °C in a 1 mL final volume with constant stirring. Enzyme activities were monitored using fluorogenic probe Z-FR-AMC (9.25 µM final concentration), and the fluorescence was monitored by spectrofluorometry using fluorometer F2700 (Hitachi, Tokyo, Japan) set to λEx = 360 nm and λEm = 480 nm. The IC50 evaluation was performed using a progressive increase in the concentration of the compounds; the IC50 values were calculated using nonlinear regression, and the data were analysed by Grafit 5.0.13 software using Equation (1). (1) y=100%/1+(x/IC50)^S.

rH84Y [4] = type: biochemical, Leishmania mexicana; details: ratio of IC50 values
rCPB2.8 [5] = molecular target: T1, rCPB2.8; test: Enzyme kinetics and mechanism of inhibition of rCPB2.8; type: biochemical; as to mechanism: key: NCPC: non-competitive inhibition with positive cooperativity; SLNC: simple linear non-competitive inhibition
Procedure: (§1) Studies of cysteine proteases rCPB2.8, rCPB3, and rH84Y inhibition kinetics were performed in different concentrations of Z-FR-AMC in the presence and absence of compounds using 100 mM sodium acetate buffer containing 5 mM EDTA, 100 mM NaCl, 0.01% Triton X-100, and 20% glycerol, at pH 5.5. Aliquots of the enzymes were pre-incubated with 5 mM DTT for 5 min at 37 °C. For every kinetic measurement, the compounds were pre-incubated with each enzyme for 10 min before adding the substrate. All kinetic assays were performed in duplicate. Inhibition constants were determined using different equations, depending on the inhibition mechanism. The assumed KM values of rCPB2.8, rCPB3, and rH84Y for Z-FR-AMC were 3.23 µM, 2.99 µM, and 2.80 µM, respectively. The data of the activity rate and substrate concentration generated rectangular hyperbolic profiles that were linearised using the Lineweaver–Burk double-reciprocal plot. The replot profiles of the slope vs. inhibitor and intercept vs. inhibitor provided Ki and αKi parameters, respectively. If the replots present a parabolic profile, the system involves the participation of a second molecule of the compound, which can bind the enzyme complexed to the first compound (EI), forming IEI, and bind to the ESI complex, forming IESI. Linearisation is required, generating the 1/Kslope vs. inhibitor and 1/Kintercept vs. inhibitor replots, according to Equations (2) and (3). (2) 1/Kslope=1/Ki+[I]/βKi2, (3) 1/Kintercept=1/αKi+[I]/αγKi2, where Ki is the inhibitory constant, [I] is the concentration of inhibitor, α is the factor of formation of the ESI complex (enzyme–substrate–inhibitor complex), β is the factor of formation of the IEI complex (inhibitor–enzyme–inhibitor complex), and γ is the factor of formation of the IESI complex (inhibitor–enzyme–substrate–inhibitor complex) according to the general mechanism (Figure 8). Furthermore, β and γ measure the cooperativity between the binding of the first and second inhibitor molecules to form IEI and IESI, respectively.

rH84Y [6] = molecular target: rH84Y (Leishmania mexicana, UniProt P36400, D186N/D189S/H209Y/N185D, form not given); test: Enzyme kinetics and mechanism of inhibition of rH84Y; type: biochemical; as to mechanism: key: NCPC: non-competitive inhibition with positive cooperativity; SLNC: simple linear non-competitive inhibition
Procedure: as §1

rCPB3 = rCPB3 (Leishmania mexicana, UniProt P36400, D186N/D189S/N185D, form not given); test: Enzyme kinetics and mechanism of inhibition of rCPB3; type: biochemical; as to mechanism: key: NCPC: non-competitive inhibition with positive cooperativity; SLNC: simple linear non-competitive inhibition
Procedure: as §1

[7] = L. amazonensis promastigotes, 26 °C, MTT, highest concentration tested 10 µg/mL
[8] = factor of formation of the ESI complex

T1 sequence (P36400 126-343): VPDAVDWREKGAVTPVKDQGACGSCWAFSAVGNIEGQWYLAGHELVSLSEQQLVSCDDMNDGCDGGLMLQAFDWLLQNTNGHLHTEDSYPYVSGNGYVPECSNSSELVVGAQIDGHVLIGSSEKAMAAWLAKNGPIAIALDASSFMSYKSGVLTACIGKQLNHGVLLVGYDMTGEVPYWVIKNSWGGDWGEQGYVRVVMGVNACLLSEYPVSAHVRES
Chain of rCPB3 (P36400 126-343 D186N/D189S/N185D): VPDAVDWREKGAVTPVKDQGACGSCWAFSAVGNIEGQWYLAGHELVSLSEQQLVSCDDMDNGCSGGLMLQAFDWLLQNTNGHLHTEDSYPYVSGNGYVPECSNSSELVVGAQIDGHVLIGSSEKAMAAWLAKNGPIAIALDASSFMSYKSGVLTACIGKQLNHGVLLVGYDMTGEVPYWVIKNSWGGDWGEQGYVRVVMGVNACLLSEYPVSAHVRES
Chain of rH84Y (Leishmania mexicana, UniProt P36400, D186N/D189S/H209Y/N185D, form not given) (P36400 126-343 D186N/D189S/H209Y/N185D): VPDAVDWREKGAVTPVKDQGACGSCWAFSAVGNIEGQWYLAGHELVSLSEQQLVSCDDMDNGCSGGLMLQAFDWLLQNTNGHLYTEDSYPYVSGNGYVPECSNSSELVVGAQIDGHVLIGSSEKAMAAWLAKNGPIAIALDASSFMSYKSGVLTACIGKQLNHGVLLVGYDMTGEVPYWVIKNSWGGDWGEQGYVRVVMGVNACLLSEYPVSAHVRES

SMILES | inhibition at 5 µM (rCPB2.8 [1]) | IC50 [2] | NIH/3T3 Cells GL50 (NIH/3T3 fibroblasts) | IC50 (rCPB2.8 [3]) | SI (selectivity index) [2] | IC50 [2, 7] | inhibition at 1 µM (rCPB2.8 [1]) | further results
CN(C)c1ccc(/C=C/C(=O)c2ccccc2O)cc1 [Compound 2c, (E)-3-(4-(dimethylamino)phenyl)-1-(2-hydroxyphenyl)prop-2-en-1-one] | 25.6% | > 10 µg/mL | >935.21 µM | 11.7 ± 0.38 µM | – | – | – | rCPB2.8 activity (increased to) (rCPB2.8 [1]; 1 µM compound, activity relative to control): 141.71%
CN(C)c1ccc(/C=C/C(=O)c2ccc(Cl)cc2)cc1 [Compound 1c, (E)-1-(4-chlorophenyl)-3-(4-(dimethylamino)phenyl)prop-2-en-1-one] | 91.6% | – | >874.83 µM | 2.75 ± 0.18 µM | >767.39 | 1.14 µM | – | –
CN(C)c1ccc(/C=C/C(=O)c2cc(F)ccc2O)cc1 [Compound 4c, (E)-3-(4-(dimethylamino)phenyl)-1-(5-fluoro-2-hydroxyphenyl)prop-2-en-1-one] | – | – | >876.24 µM | 9.88 ± 0.73 µM | >1752.48 | 0.5 µM | – | Times more potent in inhibiting rH84Y compared to rCPB3 (rH84Y [4]): 8.74 times; Cytotoxicity against mammal cells (in words) (NIH/3T3 fibroblasts; NIH/3T3 cells): noncytotoxic
COc1ccc(/C=C/C(=O)c2ccc(Cl)cc2)cc1 [Compound 1a, (E)-1-(4-chlorophenyl)-3-(4-methoxyphenyl)prop-2-en-1-one] | – | > 10 µg/mL | 294.13 µM | 13.7 ± 0.74 µM | – | – | 82% | –
O=c1c(O)c(-c2ccc3c(c2)OCO3)oc2ccccc12 [Compound f12b, 2-(benzo[d][1, 3]dioxol-5-yl)-3-hydroxy-4H-chromen-4-one] | 77.5% | – | >885.74 µM | 5.23 ± 0.32 µM | – | > 10 µg/mL | 69.2% | Mechanism (rCPB2.8 [5]): NCPC; αKi (rCPB2.8 [5]): 24.9 ± 2.3 µM; Ki (rCPB2.8 [5]; Ki): 39.2 ± 4.1 µM; α (rCPB2.8 [5]; [8]): 0.634; β (rCPB2.8 [5]; factor of formation of the IEI complex): 0.029; γ (rCPB2.8 [5]; factor of formation of the IESI complex): 0.013; Ki (rCPB2.8 [5]; βKi): 1.17 ± 0.12 µM; Ki (rCPB2.8 [5]; γKi): 0.51 ± 0.09 µM; Mechanism (rH84Y [6]): SLNC; αKi (rH84Y [6]): 6.06 ± 0.24 µM; α (rH84Y [6]; [8]): 1; Mechanism (rCPB3): SLNC; αKi (rCPB3): 13.7 ± 1.2 µM; α (rCPB3; [8]): 1
